Data: PubChem BioAssay AID248 (DTP/NCI, 2004)
“And” between values parts separate entries of the source, which are not always exact repeats. Identical values can stand only once. Toxic doses and inconclusive results are not listed.

Test system: L1210 leukemia ip in BDF1 mice, survival T/C
Experiment: NCI In Vivo Anticancer Drug Screen. Data for tumor model L1210 Leukemia (intraperitoneal) in B6D2F1 (BDF1) mice
Settings: endpoint: mean survival time, higher = longer survival
Procedure, shortened: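 Read-out is survival time, reported as the treated-group measurement over the vehicle-control measurement.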

[1] = dose: 100.0 mg/kg/injection, schedule: Q01DX009 (ip), vehicle: Klucel (hydroxypropylcellulose) (HPC)
[2] = dose: 200.0 mg/kg/injection, schedule: Q01DX009 (ip), vehicle: Klucel (hydroxypropylcellulose) (HPC)
[3] = dose: 100.0 mg/kg/injection, schedule: Q01DX009 (ip), vehicle: saline with Tween-80
[4] = dose: 100.0 mg/kg/injection, schedule: Q04DX003 (ip), vehicle: saline with Tween-80
[5] = dose: 200.0 mg/kg/injection, schedule: Q01DX009 (ip), vehicle: saline with Tween-80
[6] = dose: 200.0 mg/kg/injection, schedule: Q04DX003 (ip), vehicle: saline with Tween-80
[7] = dose: 400.0 mg/kg/injection, schedule: Q01DX009 (ip), vehicle: saline with Tween-80
[8] = dose: 400.0 mg/kg/injection, schedule: Q04DX003 (ip), vehicle: saline with Tween-80
[9] = dose: 50.0 mg/kg/injection, schedule: Q01DX009 (ip), vehicle: saline with Tween-80
[10] = dose: 100.0 mg/kg/injection, schedule: Q01DX001 (ip), vehicle: saline
[11] = dose: 200.0 mg/kg/injection, schedule: Q01DX001 (ip), vehicle: saline
[12] = dose: 400.0 mg/kg/injection, schedule: Q01DX001 (ip), vehicle: saline
[13] = dose: 100.0 mg/kg/injection, schedule: Q01DX001 (ip), vehicle: carboxymethylcellulose (CMC)
[14] = dose: 200.0 mg/kg/injection, schedule: Q01DX001 (ip), vehicle: carboxymethylcellulose (CMC)
[15] = dose: 400.0 mg/kg/injection, schedule: Q01DX001 (ip), vehicle: carboxymethylcellulose (CMC)

## O=C(OCc1ccccc1)C(=O)OCc1ccccc1
[1]
  T/C: 90 % of control
dose: 100.0 mg/kg/injection, schedule: Q04DX003 (ip), vehicle: Klucel (hydroxypropylcellulose) (HPC)
  T/C: 95 % of control
[2]
  T/C: 103 % of control
dose: 200.0 mg/kg/injection, schedule: Q04DX003 (ip), vehicle: Klucel (hydroxypropylcellulose) (HPC)
  T/C: 100 % of control
dose: 400.0 mg/kg/injection, schedule: Q04DX003 (ip), vehicle: Klucel (hydroxypropylcellulose) (HPC)
  T/C: 100 % of control

## Cn1/c(=N/N)sc2ccccc21.Cn1/c(=N/N)sc2ccccc21.Cn1/c(=N/N)sc2ccccc21.Cn1/c(=N\N)sc2ccccc21.[Cl][Rh][Cl]
dose: 3.13 mg/kg/injection, schedule: Q04DX003 (ip), vehicle: distilled water + Tween-80
  T/C: 100 % of control
dose: 6.25 mg/kg/injection, schedule: Q04DX003 (ip), vehicle: distilled water + Tween-80
  T/C: 98 % of control
dose: 12.5 mg/kg/injection, schedule: Q04DX003 (ip), vehicle: distilled water + Tween-80
  T/C: 101 % of control
dose: 25.0 mg/kg/injection, schedule: Q04DX003 (ip), vehicle: distilled water + Tween-80
  T/C: 101 % of control
dose: 50.0 mg/kg/injection, schedule: Q04DX003 (ip), vehicle: distilled water + Tween-80
  T/C: 93 % of control
dose: 100.0 mg/kg/injection, schedule: Q04DX003 (ip), vehicle: distilled water + Tween-80
  T/C: 90 % of control
dose: 200.0 mg/kg/injection, schedule: Q04DX003 (ip), vehicle: distilled water + Tween-80
  T/C: 95 % of control

## O=C1C2ON=C(c3ccccc3)C2C(=O)N1OS(=O)(=O)c1ccccc1 (centres undefined)
[3]
  T/C: 98 % of control
[4]
  T/C: 103 % of control
[5]
  T/C: 92 % of control
[6]
  T/C: 102 % of control
[7]
  T/C: 88 % of control
[8]
  T/C: 90 % of control

## CC(C)/C=N\NC(=O)c1ccc[n+](C)c1
[9]
  T/C: 100 % of control
[3]
  T/C: 92 % of control

## CCCCCCCC/C=C\CCCCCCCC(=O)OCCCCCCCCCCCCC
dose: 100.0 mg/kg/injection, schedule: Q01DX009 (ip), vehicle: saline sonified
  T/C: 91 % of control
dose: 200.0 mg/kg/injection, schedule: Q01DX009 (ip), vehicle: saline sonified
  T/C: 102 % of control
dose: 400.0 mg/kg/injection, schedule: Q01DX009 (ip), vehicle: saline sonified
  T/C: 93 % of control

## O=C(Nc1cccc(Cl)c1)OCC#CCCl
dose: 50.0 mg/kg/injection, schedule: Q01DX001 (ip), vehicle: saline sonified
  T/C: 97 % of control

## O=C(/C(=C\c1ccccc1)Oc1ccc([N+](=O)[O-])cc1)c1ccccc1
[10]
  T/C: 88 % of control
[11]
  T/C: 92 % of control
[12]
  T/C: 95 % of control

## O=C(N/N=C/c1ccc(Cl)cc1Cl)C(O)(c1ccccc1)c1ccccc1
[13]
  T/C: 111 % of control
[14]
  T/C: 101 % of control
[15]
  T/C: 92 % of control

## O=C(CNC(=O)c1ccccc1)N/N=C/c1ccncc1
dose: 25.0 mg/kg/injection, schedule: Q01DX009 (ip), vehicle: saline with Tween-80
  T/C: 91 % of control
[9]
  T/C: 93 % of control
[3]
  T/C: 86 % of control

## CCOC(=O)c1occ(Cl)c1Cl
[10]
  T/C: 107 % of control
[11]
  T/C: 113 % of control

## COc1ccc(Oc2cc(CC3c4cc(OC)c(OC)cc4CCN3C)c([N+](=O)[O-])cc2OC)cc1OC (centres undefined)
dose: 12.5 mg/kg/injection, schedule: Q01DX009 (ip), vehicle: saline
  T/C: 93 % of control
dose: 25.0 mg/kg/injection, schedule: Q01DX009 (ip), vehicle: saline
  T/C: 102 % of control
dose: 50.0 mg/kg/injection, schedule: Q01DX009 (ip), vehicle: saline
  T/C: 96 % of control
dose: 100.0 mg/kg/injection, schedule: Q01DX009 (ip), vehicle: saline
  T/C: 108 % of control

## CC(=O)N(C1=C(N(CCO)CCO)C(=O)c2ccccc2C1=O)c1ccccc1
[4]
  T/C: 106 % of control
[6]
  T/C: 103 % of control
[8]
  T/C: 101 % of control

## CN(C)c1ccc(C(C#N)OC(=O)c2ccccc2)cc1 (centres undefined)
[13]
  T/C: 89 % of control
dose: 100.0 mg/kg/injection, schedule: Q01DX009 (ip), vehicle: carboxymethylcellulose (CMC)
  T/C: 93 % of control
dose: 100.0 mg/kg/injection, schedule: Q04DX002 (ip), vehicle: carboxymethylcellulose (CMC)
  T/C: 97 % of control
dose: 100.0 mg/kg/injection, schedule: Q04DX003 (ip), vehicle: carboxymethylcellulose (CMC)
  T/C: 100 % of control
[14]
  T/C: 94 % of control
dose: 200.0 mg/kg/injection, schedule: Q01DX009 (ip), vehicle: carboxymethylcellulose (CMC)
  T/C: 98 % of control and 90 % of control
dose: 200.0 mg/kg/injection, schedule: Q04DX002 (ip), vehicle: carboxymethylcellulose (CMC)
  T/C: 97 % of control
dose: 200.0 mg/kg/injection, schedule: Q04DX003 (ip), vehicle: carboxymethylcellulose (CMC)
  T/C: 89 % of control
[15]
  T/C: 91 % of control
dose: 400.0 mg/kg/injection, schedule: Q01DX009 (ip), vehicle: carboxymethylcellulose (CMC)
  T/C: 98 % of control and 86 % of control
dose: 400.0 mg/kg/injection, schedule: Q04DX002 (ip), vehicle: carboxymethylcellulose (CMC)
  T/C: 94 % of control
dose: 400.0 mg/kg/injection, schedule: Q04DX003 (ip), vehicle: carboxymethylcellulose (CMC)
  T/C: 94 % of control

## O=[N+]([O-])C=C([SH2+])[SH2+].O=[N+]([O-])C=C([SH2+])[SH2+].[Pt+2].c1ccc(C[P+](c2ccccc2)(c2ccccc2)c2ccccc2)cc1
dose: 50.0 mg/kg/injection, schedule: Q01DX001 (ip), vehicle: saline
  T/C: 95 % of control
[10]
  T/C: 110 % of control
[11]
  T/C: 96 % of control

## O=C(NCCN1CCCCC1)C(O)(c1ccccc1)C1CCCCC1 (centres undefined)
dose: 75.0 mg/kg/injection, schedule: Q01DX001 (ip), vehicle: other
  T/C: 97 % of control
dose: 150.0 mg/kg/injection, schedule: Q01DX001 (ip), vehicle: other
  T/C: 100 % of control

## OC(COc1cccc2ccccc12)CN1CC=C(c2ccccc2)CC1 (centres undefined)
dose: 12.5 mg/kg/injection, schedule: Q01DX009 (ip), vehicle: Klucel (hydroxypropylcellulose) (HPC)
  T/C: 103 % of control
dose: 25.0 mg/kg/injection, schedule: Q01DX009 (ip), vehicle: Klucel (hydroxypropylcellulose) (HPC)
  T/C: 100 % of control
dose: 50.0 mg/kg/injection, schedule: Q01DX009 (ip), vehicle: Klucel (hydroxypropylcellulose) (HPC)
  T/C: 101 % of control
[1]
  T/C: 100 % of control

## O=C(Nc1ccc(NC(=O)c2ccc(C3=NCCCN3)cc2)cc1)Nc1ccc(C2=NCCCN2)cc1
dose: 0.62 mg/kg/injection, schedule: Q01DX Z (ip), vehicle: carboxymethylcellulose (CMC)
  T/C: 103 % of control
dose: 1.25 mg/kg/injection, schedule: Q01DX Z (ip), vehicle: carboxymethylcellulose (CMC)
  T/C: 110 % of control
dose: 2.5 mg/kg/injection, schedule: Q01DX Z (ip), vehicle: carboxymethylcellulose (CMC)
  T/C: 105 % of control
dose: 5.0 mg/kg/injection, schedule: Q01DX Z (ip), vehicle: carboxymethylcellulose (CMC)
  T/C: 174 % of control
dose: 6.0 mg/kg/injection, schedule: Q01DX Z (ip), vehicle: carboxymethylcellulose (CMC)
  T/C: 153 % of control
dose: 8.0 mg/kg/injection, schedule: Q01DX Z (ip), vehicle: carboxymethylcellulose (CMC)
  T/C: 185 % of control
dose: 21.0 mg/kg/injection, schedule: Q01DX Z (ip), vehicle: carboxymethylcellulose (CMC)
  T/C: 113 % of control
dose: 62.0 mg/kg/injection, schedule: Q01DX Z (oral), vehicle: carboxymethylcellulose (CMC)
  T/C: 91 % of control
dose: 125.0 mg/kg/injection, schedule: Q01DX Z (oral), vehicle: carboxymethylcellulose (CMC)
  T/C: 102 % of control
dose: 250.0 mg/kg/injection, schedule: Q01DX Z (oral), vehicle: carboxymethylcellulose (CMC)
  T/C: 98 % of control
dose: 500.0 mg/kg/injection, schedule: Q01DX Z (oral), vehicle: carboxymethylcellulose (CMC)
  T/C: 100 % of control

## COC(=O)c1cc(C)cc(N)c1C
[10]
  T/C: 102 % of control
[11]
  T/C: 109 % of control
[12]
  T/C: 104 % of control

## COc1ccc(OC(=O)Nc2ccc(Cl)cc2OC)cc1
[1]
  T/C: 92 % of control
[2]
  T/C: 95 % of control

## CCCCCCCCCCCCCCn1cnc2c(N)ncnc21
dose: 12.5 mg/kg/injection, schedule: Q01DX005 (ip), vehicle: other
  T/C: 101 % of control
dose: 25.0 mg/kg/injection, schedule: Q01DX005 (ip), vehicle: other
  T/C: 111 % of control
dose: 50.0 mg/kg/injection, schedule: Q01DX005 (ip), vehicle: other
  T/C: 101 % of control
dose: 100.0 mg/kg/injection, schedule: Q01DX005 (ip), vehicle: other
  T/C: 106 % of control

## COCCNP(=S)(OC)OC
[3]
  T/C: 93 % of control
[4]
  T/C: 101 % of control
[5]
  T/C: 95 % of control
[6]
  T/C: 106 % of control
[7]
  T/C: 101 % of control
[8]
  T/C: 92 % of control
